The values that follow come from patent US7732447B2, “Fused [d]pyridazin-7-ones” (Cephalon, Inc., priority 2006, dated 2010).

What is called IC50 is the point on the concentration scale where inhibition reaches its midpoint. What is called melting point is the temperature, or range, at which the solid turns liquid.

Molecules are shown by their SMILES.

Chain of CDK5/GST-p25 (Q00535 whole entry, species assumed): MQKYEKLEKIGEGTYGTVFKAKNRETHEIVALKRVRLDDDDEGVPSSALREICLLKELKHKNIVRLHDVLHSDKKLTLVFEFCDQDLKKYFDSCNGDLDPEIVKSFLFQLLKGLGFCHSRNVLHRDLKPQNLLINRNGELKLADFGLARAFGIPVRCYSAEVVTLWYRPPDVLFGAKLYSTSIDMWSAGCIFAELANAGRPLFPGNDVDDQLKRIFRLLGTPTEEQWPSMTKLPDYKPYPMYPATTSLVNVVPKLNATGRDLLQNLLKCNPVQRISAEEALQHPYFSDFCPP
Chain of CDK5/GST-p25 (Q15078 99-307 partner limits assumed, species assumed): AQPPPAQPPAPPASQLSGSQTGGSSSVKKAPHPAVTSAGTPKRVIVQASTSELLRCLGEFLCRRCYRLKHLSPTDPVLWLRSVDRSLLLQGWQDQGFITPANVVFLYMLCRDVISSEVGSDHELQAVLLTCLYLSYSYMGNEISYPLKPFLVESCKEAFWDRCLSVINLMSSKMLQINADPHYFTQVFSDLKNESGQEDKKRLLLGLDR

The target of one data set is CDK5/GST-p25 (Homo sapiens, UniProt Q00535). Description: Cyclin-Dependent Kinase 5 inhibition assay (TRF). In kind it is biochemical. The conditions noted are these: 10 μM ATP; read-out: CDK-5 IC50. On the procedure:
Compounds were tested for their ability to inhibit the kinase activity of baculovirus-expressed cyclin-dependent kinase-5 complexed with GST-p25 (CDK5/GST-p25) using a a TRF detection system. Each 96-well Costar high binding plate (Corning Costar #3922, Corning, N.Y.) was coated with 100 μL/well of 50 μg/mL recombinant GST-tagged substrate [GST-retinoblastoma protein (Rb) Lot # 5.1A] in TBS. The CDK5/GST-p25 assay mixture (total volume=100 μL/well) consisting of 20 mM HEPES, pH 7.2, 10 μM ATP, 10 mM MgCl2, 5 mM EGTA, 25 mM β-glycerophosphate, 0.1% BSA, 2.5% DMSO, and various concentrations of test compound were then added to the assay plate. Enzyme (2 ng/mL CDK5/GST-p25 Lot # p25/CD5-3) was added and the reaction was allowed to proceed at 37° C. for 20 minutes. Detection of the phosphorylated product was performed by adding 100 μL/well of phospho-Rb (Ser-780) antibody (Cell Signaling #9307, Beverly, Mass.) diluted 1:10,000 in antibody dilution buffer (0.1% BSA in TBS-T). After 1-hour incubation at room temperature, 100 μL/well of Eu—N1 labelled anti-rabbit antibody diluted 1:50,000 in antibody dilution buffer (PerkinElmer Life Sciences #AD0105, Boston, Mass.) was added. Incubation at room temperature then proceeded for 1 hour, followed by addition of 100 μl enhancement solution (PerkinElmer Life Sciences #1244-105, Boston, Mass.). The plate was gently agitated and after a few minutes, the fluorescence of the resulting solution was measured using the PerkinElmer EnVision 2100 (or 2102) multilabel plate reader.
As for `O=c1[nH]nc(-c2ccc(O)cc2)c2[nH]c3ccccc3c12` [Example 4s, 4-(4-Hydroxy-phenyl)-2,5-dihydro-pyridazino[4,5-b]indol-1-one], the IC50 is 657 nM.
On to `COc1ccc2c(c1)[nH]c1c(-c3ccc(OCc4ccccc4)cc3)n[nH]c(=O)c12` [Example 4t, 4-(4-Benzyloxy-phenyl)-7-methoxy-2,5-dihydro-pyridazino[4,5-b]indol-1-one], for which the IC50 is more than 1000 nM.
The same measure, in the same setting: with `COc1ccc2c(c1)[nH]c1c(-c3ccc(O)cc3)n[nH]c(=O)c12` [Example 4u, 4-(4-Hydroxy-phenyl)-7-methoxy-2,5-dihydro-pyridazino[4,5-b]indol-1-one] the figure was 756 nM.

Tested on in the next data set: not given
Assay: not given
Settings: not given
`O=c1[nH]nc(-c2ccc(O)cc2)c2[nH]c3ccccc3c12` [Example 4s, 4-(4-Hydroxy-phenyl)-2,5-dihydro-pyridazino[4,5-b]indol-1-one] registered a melting point of more than 300 °C.
The same measure, in the same setting: to `COc1ccc2c(c1)[nH]c1c(-c3ccc(OCc4ccccc4)cc3)n[nH]c(=O)c12` [Example 4t, 4-(4-Benzyloxy-phenyl)-7-methoxy-2,5-dihydro-pyridazino[4,5-b]indol-1-one] belongs more than 300 °C; to `COc1ccc2c(c1)[nH]c1c(-c3ccc(O)cc3)n[nH]c(=O)c12` [Example 4u, 4-(4-Hydroxy-phenyl)-7-methoxy-2,5-dihydro-pyridazino[4,5-b]indol-1-one], more than 300 °C.
